Experimental data taken from PMC5324278, “Novel synthetic analogues of avian β-defensin-12: the role of charge, hydrophobicity, and disulfide bridges in biological functions” (BMC Microbiology, 2017).
Bridge positions count the residues as written; N and C are the ends. Square brackets hold non-standard residues; d marks the D form. Ends that are not written are not given here. Abu = CC[C@H](N)C(=O)O

system: CCR2 transfected CHO-K1 cells; assay: Chemotaxis assay, 48-well microchemotaxis chamber; format: cell-based, avian; details: Fig. 9; n = 5

Row | Substance | chemotactic activity for CCR2-CHO-K1 cells (in words)
1 | GPDSC^1NHDRGLC^2RVGNC^3NPGEYLAKYC^4FEPVILC^5C^6VRNRWA (bicyclic or more) [AvBD-12/6, group 3 hybrid peptide: backbone of AvBD-12 with amino acid residues of AvBD-6] | retained the chemotactic function
2 | GPDS[Abu]NHDRGL[Abu]RVGNCNPGEYLAKY[Abu]FEPVIL[Abu]CKPLSPTPTKT (disulfide 17-35) [AvBD-12A5] | lost their chemotactic activity
3 | GPDS[Abu]NHDRGL[Abu]RVGN[Abu]NPGEYLAKY[Abu]FEPVIL[Abu][Abu]KPLSPTPTKT [AvBD-12A6] | lost their chemotactic activity
4 | GPHSANHVRGLARVGNANPGLYLAKYAFIPVILAAKPLSPTPTKT [AvBD-12A1] | minimal chemotactic activity
5 | GPRSANHKRGLARVGNANPGKYLAKYSFRPVILSSKPLSPTPTKT [AvBD-12A3] | minimal chemotactic activity

system: not given; assay: not given; details: not given

Row | Substance | chemotactic activity, % of wild type AvBD-12
6 | GPRSANHKRGLARVGNANPGKYLAKYSFRPVILSSKPLSPTPTKT [AvBD-12A3] | > 50%
